Assay results published in patent US10894052B2, “Heterocyclic inhibitors of ATR kinase” (Board of Regents, The University of Texas System, priority 2018, dated 2021).
Read-outs that look alike come from different tables or passages of the source.

Legend:
[1] = molecular target: ATR/ATRIP complex (Homo sapiens (Human), UniProt Q13535); assay: ATR/ATRIP enzymatic assay (Caliper-based); type: biochemical; settings: ATR/ATRIP enzyme; FAM-labeled RAD17 peptide, ATP
Method: (§1) The ability of the compounds of Formula I to inhibit the catalytic activity of the ATR/ATRIP complex was measured in a Caliper-based assay, and in HT-29 cells in an Alphascreen assay, following the ATR-mediated phosphorylation of CHK1, described below.
Human full-length FLAG-TEV-ATR and His6-ATRIP were co-expressed in HEK293 cells. […] The sample was loaded into a column, and then washed with buffer A three times. Protein was subsequently eluted with 2 ml of buffer B (buffer A+200 μg/ml 3×FLAG peptide).
The ability of new chemical matter to inhibit the ATR catalytic activity in this ATR/ATRIP complex was assessed using a Caliper-based assay. A 2× enzyme solution (i.e., 4 nM enzyme) was prepared using 1× Kinase Reaction Buffer (25 mM HEPES pH 8, 0.0055% Brij-35, 10 mM MnCl2, and 1 mM DTT). […] 10 μL of the 2× enzyme solution was transferred to an assay plate containing 60 nL of test compound (from a 3× serial dilution) in 100% DMSO. Following a 30-min incubation at 28° C., 10 μL of the 2× peptide solution was then transferred to the same assay plate. The reaction incubated at 28° C. for 6 h. After adding 30 μL stop buffer (100 mM HEPES pH 7.5, 0.015% Brij-35, 0.2% Coating-3 Reagent (PerkinElmer, catalog #PN760050), and 50 mM EDTA), data were collected on a Caliper instrument. Conversion values were converted to inhibition values via the following equation: % inhibition=(max−conversion)/(max−min)*100, wherein “max” corresponds to the DMSO control, and “min” corresponds to the low control. IC50 values were calculated using the following equation in XLFit: Y=Bottom+(Top−Bottom)/1+(IC50/X)^HillSlope).

[2] = test system: ATR-driven phosphorylation of Chk1 kinase at Serine 345 in HT-29 cells; assay: pCHK1 cellular assay (CHK1 p-Ser345 AlphaScreen SureFire); type: cell-based; settings: HT-29 colorectal adenocarcinoma cells, 4-nitroquinoline N-oxide 12 μM, read-out: Cell IC50 (pCHK1)
Method: as §1
Cellular IC50 for the inhibitors of ATR described herein were measured in HT-29 colorectal adenocarcinoma cells.
The microplate was incubated overnight (approximately 20 hours) at 37° C. with 5% CO2 and ambient O2. Stock solutions of the test compounds were prepared in 100% DMSO (Sigma, Catalog #D2650) and serially diluted 1:3 using 100% DMSO. Compounds were additionally diluted 1:33 in culture medium, and 10 μL/well were transferred to the tissue culture plate. Following the compound addition, the microplate was incubated at 37° C. for 90 minutes. […] The cells were then washed with PBS and lysed using 10 μL/well […]® Kit lysis buffer diluted to 1× in water (PerkinElmer Catalog #TGRCHK1S50K), with mixing on an orbital shaker at 500 rpm for 20 min at room temperature. Lysates were frozen at −20 OC overnight.
The pCHK1 ALPHASCREEN® signal was measured using an ENVISION® plate reader (PerkinElmer). IC50 values were calculated using a four-parameter logistic curve fit using Genedata Screener software. Percent of control for each compound concentration was calculated by the following formula: 100*(Compound−Min)/(Max−Min), where “Max” is the high control, DMSO, and “Min” is the low control, 5 μM ATR inhibitor.

Chain of ATR/ATRIP complex (Q13535 whole entry): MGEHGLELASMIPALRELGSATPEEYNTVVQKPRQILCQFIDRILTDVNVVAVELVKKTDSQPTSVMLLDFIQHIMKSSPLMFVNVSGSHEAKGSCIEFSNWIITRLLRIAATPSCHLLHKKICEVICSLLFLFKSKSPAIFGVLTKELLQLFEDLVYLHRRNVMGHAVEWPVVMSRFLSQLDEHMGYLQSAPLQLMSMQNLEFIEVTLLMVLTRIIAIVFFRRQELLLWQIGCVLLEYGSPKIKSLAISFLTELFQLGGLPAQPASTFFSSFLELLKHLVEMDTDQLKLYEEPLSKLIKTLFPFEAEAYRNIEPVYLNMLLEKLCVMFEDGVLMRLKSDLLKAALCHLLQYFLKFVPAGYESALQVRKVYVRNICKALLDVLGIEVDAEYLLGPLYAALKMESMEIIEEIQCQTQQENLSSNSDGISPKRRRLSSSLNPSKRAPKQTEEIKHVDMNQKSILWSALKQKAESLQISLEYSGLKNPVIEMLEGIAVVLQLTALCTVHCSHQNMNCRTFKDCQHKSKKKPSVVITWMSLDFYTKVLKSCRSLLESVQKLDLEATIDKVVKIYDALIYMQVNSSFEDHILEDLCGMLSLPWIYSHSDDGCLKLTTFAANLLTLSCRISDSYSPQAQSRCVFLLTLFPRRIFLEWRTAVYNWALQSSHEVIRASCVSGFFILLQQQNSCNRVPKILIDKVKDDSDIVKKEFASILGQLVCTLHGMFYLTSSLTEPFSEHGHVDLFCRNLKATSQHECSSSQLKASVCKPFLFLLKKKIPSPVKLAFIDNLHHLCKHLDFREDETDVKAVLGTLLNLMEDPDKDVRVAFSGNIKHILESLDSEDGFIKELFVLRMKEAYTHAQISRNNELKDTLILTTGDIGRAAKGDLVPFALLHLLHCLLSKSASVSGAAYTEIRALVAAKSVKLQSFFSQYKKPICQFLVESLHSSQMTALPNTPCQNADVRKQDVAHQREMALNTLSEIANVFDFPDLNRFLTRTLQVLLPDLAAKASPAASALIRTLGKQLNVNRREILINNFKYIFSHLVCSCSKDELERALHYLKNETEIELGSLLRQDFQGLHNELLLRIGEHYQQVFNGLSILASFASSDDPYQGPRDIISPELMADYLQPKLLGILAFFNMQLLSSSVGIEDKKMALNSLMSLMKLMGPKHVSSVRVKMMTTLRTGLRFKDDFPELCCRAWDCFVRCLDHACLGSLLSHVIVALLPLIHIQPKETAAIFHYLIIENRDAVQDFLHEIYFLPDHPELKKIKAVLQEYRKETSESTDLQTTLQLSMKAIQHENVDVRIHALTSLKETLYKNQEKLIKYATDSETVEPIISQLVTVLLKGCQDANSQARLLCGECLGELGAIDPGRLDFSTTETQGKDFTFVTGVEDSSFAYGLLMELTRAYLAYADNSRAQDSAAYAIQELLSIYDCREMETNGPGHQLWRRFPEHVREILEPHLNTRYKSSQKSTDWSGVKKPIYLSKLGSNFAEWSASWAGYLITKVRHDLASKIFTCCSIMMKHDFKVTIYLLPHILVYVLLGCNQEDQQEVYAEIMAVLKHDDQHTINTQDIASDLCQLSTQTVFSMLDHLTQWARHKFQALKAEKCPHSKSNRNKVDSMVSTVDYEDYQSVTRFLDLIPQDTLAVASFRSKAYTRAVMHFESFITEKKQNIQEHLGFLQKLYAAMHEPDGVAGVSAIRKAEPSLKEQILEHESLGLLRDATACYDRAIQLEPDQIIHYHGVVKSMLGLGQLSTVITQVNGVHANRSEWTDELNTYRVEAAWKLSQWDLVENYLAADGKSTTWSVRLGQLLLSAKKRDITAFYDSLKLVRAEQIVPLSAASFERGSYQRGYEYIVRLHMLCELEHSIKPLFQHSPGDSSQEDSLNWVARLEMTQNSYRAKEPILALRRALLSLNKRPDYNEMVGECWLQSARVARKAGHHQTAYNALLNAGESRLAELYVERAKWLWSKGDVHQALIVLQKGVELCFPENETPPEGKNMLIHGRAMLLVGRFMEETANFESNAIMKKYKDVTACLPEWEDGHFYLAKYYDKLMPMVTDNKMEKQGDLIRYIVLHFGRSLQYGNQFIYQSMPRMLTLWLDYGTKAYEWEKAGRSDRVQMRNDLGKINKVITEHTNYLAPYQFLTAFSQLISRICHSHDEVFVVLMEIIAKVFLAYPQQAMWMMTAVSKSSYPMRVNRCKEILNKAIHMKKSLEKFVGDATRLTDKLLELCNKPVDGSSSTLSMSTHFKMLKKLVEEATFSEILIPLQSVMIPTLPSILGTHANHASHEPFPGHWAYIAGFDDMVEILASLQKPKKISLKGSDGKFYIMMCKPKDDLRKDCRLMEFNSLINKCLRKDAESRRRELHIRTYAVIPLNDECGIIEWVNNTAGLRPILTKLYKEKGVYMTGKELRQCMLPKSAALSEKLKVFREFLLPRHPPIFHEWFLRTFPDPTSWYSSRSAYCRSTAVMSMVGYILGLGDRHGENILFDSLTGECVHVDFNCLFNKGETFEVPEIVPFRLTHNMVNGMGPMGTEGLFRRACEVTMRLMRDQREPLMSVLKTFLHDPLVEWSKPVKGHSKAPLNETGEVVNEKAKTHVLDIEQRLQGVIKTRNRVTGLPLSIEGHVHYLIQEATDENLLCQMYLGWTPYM
Chain of ATR/ATRIP complex (Q8WXE1 whole entry partner): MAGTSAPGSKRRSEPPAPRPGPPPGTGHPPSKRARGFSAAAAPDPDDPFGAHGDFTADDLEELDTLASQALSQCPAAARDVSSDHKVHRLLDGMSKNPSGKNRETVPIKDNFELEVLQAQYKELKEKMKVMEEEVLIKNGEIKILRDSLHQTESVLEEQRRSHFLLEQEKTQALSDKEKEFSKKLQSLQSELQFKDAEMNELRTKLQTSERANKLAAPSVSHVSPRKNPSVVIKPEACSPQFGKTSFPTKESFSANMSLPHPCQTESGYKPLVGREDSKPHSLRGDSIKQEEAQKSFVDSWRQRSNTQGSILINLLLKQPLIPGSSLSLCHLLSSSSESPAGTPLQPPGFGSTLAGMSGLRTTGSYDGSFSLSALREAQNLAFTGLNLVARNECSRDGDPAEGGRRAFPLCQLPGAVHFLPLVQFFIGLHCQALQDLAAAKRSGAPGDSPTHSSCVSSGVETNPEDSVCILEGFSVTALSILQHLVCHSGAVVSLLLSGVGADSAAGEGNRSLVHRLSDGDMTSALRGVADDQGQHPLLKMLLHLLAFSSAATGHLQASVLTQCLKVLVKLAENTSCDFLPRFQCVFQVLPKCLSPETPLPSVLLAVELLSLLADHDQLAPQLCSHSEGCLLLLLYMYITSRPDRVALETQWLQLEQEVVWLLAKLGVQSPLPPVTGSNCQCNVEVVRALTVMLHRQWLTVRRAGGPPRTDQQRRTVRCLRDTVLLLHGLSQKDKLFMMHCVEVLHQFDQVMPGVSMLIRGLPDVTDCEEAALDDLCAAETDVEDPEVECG

Structure (SMILES) | IC50 [1] | IC50 ([2]; Homo sapiens) | IC50 [2]
C[C@@H]1COCCN1c1cc(N=S(C)(C)=O)nc(-n2cnc3ccccc32)c1 [Example 11, (R)-((6-(1H-benzo[d]imidazol-1-yl)-4-(3-methylmorpholino)pyridin-2-yl)imino)dimethyl-λ^6-sulfanone] | 9 nM | 3160 nM | 
CCOc1cc(-c2cc(N3CCOC[C@@H]3C)cc(N=S(C)(C)=O)n2)c2cc[nH]c2n1 [Example 19] | 4 nM |  | 195 nM
Cc1nc2ccccc2n1-c1cc(N2CCOC[C@H]2C)cc(N=S(C)(C)=O)n1 [Example 28, (R)-dimethyl((6-(2-methyl-1H-benzo[d]imidazol-1-yl)-4-(3-methylmorpholino)pyridin-2-yl)imino)-λ^6-sulfanone] | 24 nM | 10000 nM | 
C[C@@H]1COCCN1c1cc(N=S(C)(C)=O)nc(-n2c(N)nc3ccccc32)c1 [Example 9, (R)-((6-(2-Amino-1H-benzo[d]imidazol-1-yl)-4-(3-methylmorpholino)pyridin-2-yl)imino)dimethyl-λ^6-sulfanone] | 1 nM | 159 nM | 
C[C@@H]1COCCN1c1cc(N=S(C)(C)=O)nc(-n2c(CF)nc3ccccc32)c1 [Example 8, (R)-((6-(2-(Fluoromethyl)-1H-benzo[d]imidazol-1-yl)-4-(3-methylmorpholino)pyridin-2-yl)imino)dimethyl-λ^6-sulfanone] | 5 nM | 3330 nM | 
C[C@@H]1COCCN1c1cc(N=S2(=O)CCCC2)nc(-c2ccnc3[nH]ccc23)c1 [Example 26, (R)-1-((4-(3-methylmorpholino)-6-(1H-pyrrolo[2,3-b]pyridin-4-yl)pyridin-2-yl)imino)tetrahydro-1H-1-λ^6-thiophene 1-oxide] | 8 nM | 701 nM | 
C[C@@H]1COCCN1c1cc(N=S(C)(C)=O)nc(-n2c(CO)nc3ccccc32)c1 [Example 7, (R)-((6-(2-(Hydroxymethyl)-1H-benzo[d]imidazol-1-yl)-4-(3-methylmorpholino)pyridin-2-yl)imino)dimethyl-λ^6-sulfanone] | 16 nM | 8620 nM | 
C[C@@H]1COCCN1c1cc(N=S(C)(=O)C2CC2)nc(-c2cncc3[nH]ccc23)c1 (some centres unmarked) [Example 22] | 6 nM |  | 282 nM
CCOc1cc(-c2cc(N3CCOC[C@H]3C)cc(N=S(C)(C)=O)n2)c2cc[nH]c2n1 [Example 18, (R)-((6-(6-ethoxy-1H-pyrrolo[2,3-b]pyridin-4-yl)-4-(3-methylmorpholino)pyridin-2-yl)imino)dimethyl-λ^6-sulfanone] | 29 nM | 470 nM | 
C[C@@H]1COCCN1c1cc(N=S(C)(=O)C2CC2)nc(-c2cncc3[nH]ccc23)c1 (stereo partly drawn) [Example 21, cyclopropyl(methyl)((4-((R)-3-methylmorpholino)-6-(1H-pyrrolo[2,3-c]pyridin-4-yl)pyridin-2-yl)imino)-λ^6-sulfanone] | 9 nM | 110 nM | 
C[C@@H]1COCCN1c1cc(N=S(C)(C)=O)nc(-n2cnc3cccnc32)c1 [Example 5, (R)-((6-(3H-Imidazo[4,5-b]pyridin-3-yl)-4-(3-methylmorpholino)pyridin-2-yl)imino)dimethyl-λ^6-sulfanone] | 44 nM | 10000 nM | 
C[C@@H]1COCCN1c1cc(N=S(C)(C)=O)nc(-n2c(C(F)F)nc3ccccc32)c1 [Example 6, (R)-((6-(2-(Difluoromethyl)-1H-benzo[d]imidazol-1-yl)-4-(3-methylmorpholino)pyridin-2-yl)imino)dimethyl-λ^6-sulfanone] | 5 nM | 2320 nM | 
COc1cc(-c2cc(N3CCOC[C@H]3C)cc(N=S(C)(C)=O)n2)c2cc[nH]c2n1 [Example 14, (R)-((6-(6-methoxy-1H-pyrrolo[2,3-b]pyridin-4-yl)-4-(3-methylmorpholino)pyridin-2-yl)imino)dimethyl-λ^6-sulfanone] | 48 nM | 3650 nM | 
C[C@@H]1COCCN1c1cc(N=S2(=O)CCC2)nc(-c2ccnc3[nH]ccc23)c1 [Example 25, (R)-1-((4-(3-methylmorpholino)-6-(1H-pyrrolo[2,3-b]pyridin-4-yl)pyridin-2-yl)imino)-1-λ^6-thietane 1-oxide] | 9 nM | 767 nM | 
C[C@@H]1COCCN1c1cc(N=S(C)(C)=O)nc(-c2cc(F)cc3[nH]ccc23)c1 [Example 32, (R)-((6-(6-fluoro-1H-indol-4-yl)-4-(3-methylmorpholino)pyridin-2-yl)imino)dimethyl-λ^6-sulfanone] | 4 nM | 195 nM | 

Further lines, results first:

IC50 [1] | IC50 ([2]; Homo sapiens) | IC50 [2] | Structure (SMILES)
12 nM | 364 nM |  | C[C@@H]1COCCN1c1cc(N=S(C)(C)=O)nc(-c2cccc3[nH]ccc23)c1 [Example 20, (R)-((6-(1H-indol-4-yl)-4-(3-methylmorpholino)pyridin-2-yl)imino)dimethyl-λ^6-sulfanone]
 | 10000 nM |  | C[C@@H]1COCCN1c1cc(N=S(C)(C)=O)nc(-c2ccn(C)n2)c1 [Example 38, (R)-dimethyl((6-(1-methyl-1H-pyrazol-3-yl)-4-(3-methylmorpholino)pyridin-2-yl)imino)-λ^6-sulfanone]
 | 9620 nM |  | C[C@@H]1COCCN1c1cc(N=S(C)(C)=O)nc(-c2cncn2C)c1 [Example 35, (R)-dimethyl((6-(1-methyl-1H-imidazol-5-yl)-4-(3-methylmorpholino)pyridin-2-yl)imino)-λ^6-sulfanone]
11 nM | 99 nM |  | Cc1cc2c(-c3cc(N4CCOC[C@H]4C)cc(N=S(C)(C)=O)n3)ccnc2[nH]1 [Example 12, (R)-dimethyl((6-(2-methyl-1H-pyrrolo[2,3-b]pyridin-4-yl)-4-(3-methylmorpholino)pyridin-2-yl)imino)-λ^6-sulfanone]
 | 8210 nM |  | C[C@@H]1COCCN1c1cc(N=S(C)(C)=O)nc(-c2cc[nH]n2)c1 [Example 37, (R)-dimethyl((4-(3-methylmorpholino)-6-(1H-pyrazol-3-yl)pyridin-2-yl)imino)-λ^6-sulfanone]
118 nM | 804 nM |  | C[C@@H]1COCCN1c1cc(N=S(C)(C)=O)nc(-c2ccnc3[nH]cnc23)c1 [Example 2, (R)-((6-(3H-Imidazo[4,5-b]pyridin-7-yl)-4-(3-methylmorpholino)pyridin-2-yl)imino)dimethyl-λ^6-sulfanone]
3470 nM | 3060 nM |  | Cc1nccn1-c1cc(N2CCOC[C@H]2C)cc(N=S(C)(C)=O)n1 [Example 39, (R)-dimethyl((6-(2-methyl-1H-imidazol-1-yl)-4-(3-methylmorpholino)pyridin-2-yl)imino)-λ^6-sulfanone]
3470 nM | 3060 nM |  | C[C@@H]1COCCN1c1cc(N=S(C)(C)=O)nc(-c2nccn2C)c1 [Example 31, (R)-dimethyl((6-(1-methyl-1H-imidazol-2-yl)-4-(3-methylmorpholino)pyridin-2-yl)imino)-λ^6-sulfanone]
372 nM | 875 nM |  | C[C@@H]1COCCN1c1cc(N=S(C)(C)=O)nc(-c2ccnc(N)c2)c1 [Example 15, (R)-((2′-amino-4-(3-methylmorpholino)-[2,4′-bipyridin]-6-yl)imino)dimethyl-λ^6-sulfanone]
 | 5560 nM |  | C[C@@H]1COCCN1c1cc(N=S(C)(C)=O)nc(-c2cn[nH]c2)c1 [Example 36, (R)-dimethyl((4-(3-methylmorpholino)-6-(1H-pyrazol-4-yl)pyridin-2-yl)imino)-λ^6-sulfanone]
1850 nM | 615 nM |  | C[C@@H]1COCCN1c1cc(N=S(C)(C)=O)nc(-c2ccnn2C)c1 [Example 33, (R)-dimethyl((6-(1-methyl-1H-pyrazol-5-yl)-4-(3-methylmorpholino)pyridin-2-yl)imino)-λ^6-sulfanone]
30 nM | 660 nM |  | C[C@@H]1COCCN1c1cc(N=S(C)(C)=O)nc(-c2cc(Cl)nc3[nH]ccc23)c1 [Example 27, (R)-((6-(6-chloro-1H-pyrrolo[2,3-b]pyridin-4-yl)-4-(3-methylmorpholino)pyridin-2-yl)imino)dimethyl-λ^6-sulfanone]
